The source of these data is ChEMBL document CHEMBL4513151, “CO-ADD screening of Institut Català d'Investigació Química (Spain) compounds”.

The structures appear in SMILES notation. ≈ marks a conversion by molar mass, not a printed value.

For one experiment, the system named is Klebsiella pneumoniae. The experiment is described as follows: microbe, parasite or virus in culture. To be noted: ATCC 700603, 18 h, ASSAY_TEST Inhibition of Bacterial Growth, detection method Absorption (OD600), MEDIA CAMHB, plate type 384well, NBS, CORNING #3640.
For the next experiment, the system named is Escherichia coli. Description: microbe, parasite or virus in culture. The settings on record: ATCC 25922, 18 h, ASSAY_TEST Inhibition of Bacterial Growth, detection method Absorption (OD600), MEDIA CAMHB, plate type 384well, NBS, CORNING #3640.
The test system of a further experiment is Pseudomonas aeruginosa. The experiment is described as follows: microbe, parasite or virus in culture. To be noted: ATCC 27853, 18 h, ASSAY_TEST Inhibition of Bacterial Growth, detection method Absorption (OD600), MEDIA CAMHB, plate type 384well, NBS, CORNING #3640.
The next experiment relates to HEK293. The experiment is described as follows: cells. The format is functional. To be noted: Homo sapiens, ATCC CRL1573, HEK293; ASSAY_TEST Inhibition of Cell Viability; detection method Resazurin; Fluorescence (ex560/em590); MEDIA DMEM with 10% FBS; plate type 384well; TC; CORNING #3712; time 18 hr.
The next experiment relates to Candida albicans. The experiment is described as follows: microbe, parasite or virus in culture. To be noted: ATCC 90028, ASSAY_TEST Inhibition of Fungal Growth, detection method Absorption (OD530), plate type 384well, NBS, CORNING #3640.
Another experiment concerns Acinetobacter baumannii. Description: microbe, parasite or virus in culture. To be noted: ATCC 19606, 18 h, ASSAY_TEST Inhibition of Bacterial Growth, detection method Absorption (OD600), MEDIA CAMHB, plate type 384well, NBS, CORNING #3640.
In the next experiment the test system is Staphylococcus aureus. The experiment is described as follows: microbe, parasite or virus in culture. To be noted: ATCC 43300, 18 h, ASSAY_TEST Inhibition of Bacterial Growth, detection method Absorption (OD600), MEDIA CAMHB, plate type 384well, NBS, CORNING #3640.

A word on the CC50: it is the concentration at which the toxic effect on the cells reaches its halfway point. Read a low CC50 as greater toxicity to the cells.

Description for Acinetobacter baumannii: Antibacterial activity against Acinetobacter baumannii ATCC 19606 (CO-ADD:GN_034); MIC in CAMBH media using NBS plates, by OD600
Description for Candida albicans: Antifungal activity against Candida albicans ATCC 90028 (CO-ADD:FG_001); MIC in YNB media using NBS plates, by OD630
Description for Cryptococcus neoformans: Antifungal activity against Cryptococcus neoformans H99 ATCC 208821 (CO-ADD:FG_002); MIC in YNB media using NBS plates, by Resazurin OD(600-570)
Description for Escherichia coli: Antibacterial activity against Escherichia coli ATCC 25922 (CO-ADD:GN_001); MIC in CAMBH media using NBS plates, by OD(600)
Description for Klebsiella pneumoniae: Antibacterial activity against Klebsiella pneumoniae MDR ATCC 70063 (CO-ADD:GN_003); MIC in CAMBH media using NBS plates, by OD(600)
Description for Pseudomonas aeruginosa: Antibacterial activity against Pseudomonas aeruginosa ATCC 27853 (CO-ADD:GN_042); MIC in CAMBH media using NBS plates, by OD(600)
Description for Staphylococcus aureus: Antibacterial activity against Staphylococcus aureus MRSA ATCC 43300 (CO-ADD:GP_020); MIC in CAMBH media, using NBS plates, by OD(600)

Regarding `C[C@]12CC[C@@H](O1)[C@H]1C=C[C@H](OC(=O)c3ccccc3)[C@H]12`, the MIC in the experiment with Klebsiella pneumoniae, with Cryptococcus neoformans, against Escherichia coli, with Pseudomonas aeruginosa, in the experiment with Candida albicans and against Acinetobacter baumannii was > 32 µg/mL in each case. In the experiment with Staphylococcus aureus, this molecule registered an MIC of 32 µg/mL (≈ 118 µM). Besides, in the experiment on HEK293, the CC50 is > 32 µg/mL.
